Reference: ChEMBL document CHEMBL3792318, “Rapid, Structure-Based Exploration of Pipecolic Acid Amides as Novel Selective Antagonists of the FK506-Binding Protein 51” (J Med Chem, 2016)
Activity calls are given as the source filed them. No cut-off for these calls is given here.

Legend:
[1] = molecular target: T1, Peptidyl-prolyl cis-trans isomerase FKBP5 (Homo sapiens, UniProt Q13451); test: (§1) Binding affinity to FKBP51 FK506-binding domain (1 to 140 amino acids) (unknown origin) incubated for 30 mins using fluorescein-conjugated 2-(5-((2-(3-((R)-3-(3,4-dimethoxyphenyl)-1-((S)-1-(3,3-dimethyl-2-oxopentanoyl)piperidine-2-carbonyloxy)propyl)phenoxy)acetamido)methyl)-6-hydroxy-3-oxo-3H-xanthen-9-yl)benzoic acid by competitive fluorescence polarization assay
T1 sequence (Q13451 whole entry): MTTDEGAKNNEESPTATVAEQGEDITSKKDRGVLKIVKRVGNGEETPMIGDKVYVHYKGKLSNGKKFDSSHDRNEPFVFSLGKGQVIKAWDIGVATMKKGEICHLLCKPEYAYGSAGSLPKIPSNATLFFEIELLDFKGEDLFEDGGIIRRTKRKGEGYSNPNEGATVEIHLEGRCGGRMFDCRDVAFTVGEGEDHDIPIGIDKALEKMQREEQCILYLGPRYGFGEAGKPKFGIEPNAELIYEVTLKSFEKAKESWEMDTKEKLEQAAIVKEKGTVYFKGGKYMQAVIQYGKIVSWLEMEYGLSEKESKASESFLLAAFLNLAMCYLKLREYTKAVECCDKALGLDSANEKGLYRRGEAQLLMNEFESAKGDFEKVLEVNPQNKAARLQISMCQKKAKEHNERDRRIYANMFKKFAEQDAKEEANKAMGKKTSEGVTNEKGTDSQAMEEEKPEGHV

[2] = molecular target: Peptidyl-prolyl cis-trans isomerase FKBP1A (Homo sapiens, UniProt P62942); test: as §1, with “human FKBP12 FK1” for “FKBP51 FK506-binding”, “domain” for “domain (1 to 140 amino acids) (unknown origin)”
[3] = molecular target: T2, Peptidyl-prolyl cis-trans isomerase FKBP4 (Homo sapiens) (UniProt Q02790); test: as §1, with “FKBP52” for “FKBP51 FK506-binding domain”, “origin) up to 500 uM” for “origin)”
T2 sequence (whole entry): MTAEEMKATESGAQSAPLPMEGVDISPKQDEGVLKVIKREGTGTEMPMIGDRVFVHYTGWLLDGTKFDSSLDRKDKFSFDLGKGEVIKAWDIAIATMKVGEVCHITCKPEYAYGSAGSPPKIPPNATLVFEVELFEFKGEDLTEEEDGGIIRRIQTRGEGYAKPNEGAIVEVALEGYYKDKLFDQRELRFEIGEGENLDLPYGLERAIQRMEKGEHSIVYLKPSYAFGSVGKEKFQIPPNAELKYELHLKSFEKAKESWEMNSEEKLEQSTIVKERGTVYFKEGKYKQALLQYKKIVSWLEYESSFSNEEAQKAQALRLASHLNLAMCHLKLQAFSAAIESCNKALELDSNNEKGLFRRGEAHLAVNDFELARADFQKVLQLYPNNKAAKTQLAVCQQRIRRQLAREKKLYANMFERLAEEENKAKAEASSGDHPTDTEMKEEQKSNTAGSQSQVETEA

[4] = molecular target: T1, Peptidyl-prolyl cis-trans isomerase FKBP5
Description: Binding affinity to FKBP51 (unknown origin) by competitive fluorescence polarization assay

Sequence of Peptidyl-prolyl cis-trans isomerase FKBP1A (P62942 whole entry, the tested form may be a part): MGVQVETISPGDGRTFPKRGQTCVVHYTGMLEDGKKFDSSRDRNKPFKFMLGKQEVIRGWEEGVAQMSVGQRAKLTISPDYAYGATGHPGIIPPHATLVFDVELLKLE

SMILES	Ki [1] [µM]	Ki [2] [µM]	inhibition [3]	Ki [4] [µM]
COc1cc([C@@H](C(=O)N2CCCC[C@H]2C(=O)NC(C)(C)C(N)=O)C2CCCCC2)cc(OC)c1OC	2.2	25.1		
COc1cc([C@@H](C(=O)N2CCCC[C@H]2C(=O)NC2(C(N)=O)CCCC2)C2CCCCC2)cc(OC)c1OC	0.14	3.8	inactive	
COc1cc([C@@H](C(=O)N2CCCC[C@H]2C(=O)N[C@@H](Cc2ccccc2)C(N)=O)C2CCCCC2)cc(OC)c1OC	6.5	10.9		
COc1cc([C@@H](C(=O)N2CCCC[C@H]2C(=O)NC2(C(N)=O)CCCCC2)C2CCCCC2)cc(OC)c1OC	1.9	4.3		
COc1cc([C@@H](C(=O)N2CCCC[C@H]2C(=O)N[C@@H](CCc2ccccc2)C(N)=O)C2CCCCC2)cc(OC)c1OC	9.1	30.1		
C=CC[C@@H]1/C=C(\C)C[C@H](C)C[C@H](OC)[C@H]2O[C@@](O)(C(=O)C(=O)N3CCCC[C@H]3C(=O)O[C@H](/C(C)=C/[C@@H]3CC[C@@H](O)[C@H](OC)C3)[C@H](C)[C@@H](O)CC1=O)[C@H](C)C[C@@H]2OC [TACROLIMUS ANHYDROUS]				0.079
COc1cc([C@@H](C(=O)N2CCCC[C@H]2C(=O)N[C@H](CCO)C(N)=O)C2CCCCC2)cc(OC)c1OC		1.2		
COc1cc([C@@H](C(=O)N2CCCC[C@H]2C(=O)N[C@H](C(N)=O)C(C)C)C2CCCCC2)cc(OC)c1OC	12.6	11.5		
COc1cc([C@@H](C(=O)N2CCCC[C@H]2C(=O)NC2(C(N)=O)CCOCC2)C2CCCCC2)cc(OC)c1OC	1.8	3		
COc1cc([C@@H](C(=O)N2CCCC[C@H]2C(=O)N[C@@H](C(N)=O)c2ccccc2)C2CCCCC2)cc(OC)c1OC		12.4		
COc1cc([C@@H](C(=O)N2CCCC[C@H]2C(=O)N[C@H](C(N)=O)c2ccccc2)C2CCCCC2)cc(OC)c1OC		7.5		
COc1cc([C@@H](C(=O)N2CCCC[C@H]2C(=O)NC2(C(N)=O)CC2)C2CCCCC2)cc(OC)c1OC	19.5	50.3		
COc1cc([C@@H](C(=O)N2CCCC[C@H]2C(=O)NC(C)(C)CC(N)=O)C2CCCCC2)cc(OC)c1OC	3.8	3.2		
CCNC(=O)[C@@H]1CCCCN1C(=O)[C@H](c1cc(OC)c(OC)c(OC)c1)C1CCCCC1	55			
COc1cc([C@@H](C(=O)N2CCCC[C@H]2C(=O)N[C@H](Cc2ccccc2)C(N)=O)C2CCCCC2)cc(OC)c1OC	1.4	5.6		
COc1cc([C@@H](C(=O)N2CCCC[C@H]2C(=O)N[C@@H](Cc2cnc[nH]2)C(N)=O)C2CCCCC2)cc(OC)c1OC	13.4	101		
COc1cc([C@@H](C(=O)N2CCCC[C@H]2C(=O)N[C@@H](CCO)C(N)=O)C2CCCCC2)cc(OC)c1OC		317		
COc1cc([C@@H](C(=O)N2CCCC[C@H]2C(=O)NC2(C(=O)NCC(N)=O)CCCC2)C2CCCCC2)cc(OC)c1OC	0.8	2		
COc1cc([C@@H](C(=O)N2CCCC[C@H]2C(=O)N[C@H](C(N)=O)C2CCCCC2)C2CCCCC2)cc(OC)c1OC	4.3	12.8		
CC[C@H](C)[C@H](NC(=O)[C@@H]1CCCCN1C(=O)[C@H](c1cc(OC)c(OC)c(OC)c1)C1CCCCC1)C(N)=O	7.1	12.1		
COc1cc([C@@H](C(=O)N2CCCC[C@H]2C(=O)N[C@@H](CCC2CCCCC2)C(N)=O)C2CCCCC2)cc(OC)c1OC	12	22.5		
COc1cc([C@@H](C(=O)N2CCCC[C@H]2C(=O)N[C@H](Cc2cnc[nH]2)C(N)=O)C2CCCCC2)cc(OC)c1OC	3.8	26.9		
CC[C@@H](C)[C@@H](NC(=O)[C@@H]1CCCCN1C(=O)[C@H](c1cc(OC)c(OC)c(OC)c1)C1CCCCC1)C(N)=O	3.2	8.7		
COc1ccc(CC[C@@H](NC(=O)[C@@H]2CCCCN2C(=O)[C@H](c2cc(OC)c(OC)c(OC)c2)C2CCCCC2)c2cccc(OCC(=O)O)c2)cc1OC	0.043			
COc1cc([C@@H](C(=O)N2CCCC[C@H]2C(=O)N[C@@H](CC2CCCCC2)C(N)=O)C2CCCCC2)cc(OC)c1OC	17.8	6.6		
COc1cc([C@@H](C(=O)N2CCCC[C@H]2C(=O)NC2(C(N)=O)CCC2)C2CCCCC2)cc(OC)c1OC	4.9	23.4		

Further lines, results first:

Ki [1] [µM]	Ki [2] [µM]	inhibition [3]	Ki [4] [µM]	SMILES
5.6	49.2			COc1cc([C@@H](C(=O)N2CCCC[C@H]2C(=O)NCCC(N)=O)C2CCCCC2)cc(OC)c1OC
3.9	4.2			COc1cc([C@@H](C(=O)N2CCCC[C@H]2C(=O)NCCCCC(N)=O)C2CCCCC2)cc(OC)c1OC
10	71.1			COc1cc([C@@H](C(=O)N2CCCC[C@H]2C(=O)N[C@H](C)C(N)=O)C2CCCCC2)cc(OC)c1OC
4.5	6			CC[C@@H](NC(=O)[C@@H]1CCCCN1C(=O)[C@H](c1cc(OC)c(OC)c(OC)c1)C1CCCCC1)C(N)=O
17.1	30.7			COc1cc([C@@H](C(=O)N2CCCC[C@H]2C(=O)N[C@@H](C)C(N)=O)C2CCCCC2)cc(OC)c1OC
345				COc1cc([C@@H](C(=O)N2CCCC[C@H]2C(=O)N[C@@H](CCC(N)=O)C(N)=O)C2CCCCC2)cc(OC)c1OC
36.7	> 300			COc1cc([C@@H](C(=O)N2CCCC[C@H]2C(=O)NCC(N)=O)C2CCCCC2)cc(OC)c1OC
62.9				COc1cc([C@@H](C(=O)N2CCCC[C@H]2C(=O)N[C@@H](CO)C(N)=O)C2CCCCC2)cc(OC)c1OC
5	39.7			COc1cc([C@@H](C(=O)N2CCCC[C@H]2C(=O)N[C@@H](C(N)=O)C(C)C)C2CCCCC2)cc(OC)c1OC
3.4	120			COc1cc([C@@H](C(=O)N2CCCC[C@H]2C(=O)N[C@H](CCC(N)=O)C(N)=O)C2CCCCC2)cc(OC)c1OC
3.6	51.9			CC[C@H](NC(=O)[C@@H]1CCCCN1C(=O)[C@H](c1cc(OC)c(OC)c(OC)c1)C1CCCCC1)C(N)=O
2.8	46.9			COc1cc([C@@H](C(=O)N2CCCC[C@H]2C(=O)N[C@H](CO)C(N)=O)C2CCCCC2)cc(OC)c1OC
5.7	22.3			COc1cc([C@@H](C(=O)N2CCCC[C@H]2C(=O)NCCCC(N)=O)C2CCCCC2)cc(OC)c1OC
8.7	6.6			COc1cc([C@@H](C(=O)N2CCCC[C@H]2C(=O)N[C@@H](CC(C)C)C(N)=O)C2CCCCC2)cc(OC)c1OC
